Measurements: patent US11147792B2, “Inhibitors of microbially induced amyloid” (Axial Therapeutics, Inc, priority 2017, dated 2021)
Like-named read-outs stand apart in the source and are kept apart here.

Columns and labels:
Type in all cases: biochemical
[1] = target: T1, E. coli CsgA (Escherichia coli, UniProt P28307); assay: In vitro ThioflavinT assay of CsgA aggregation; details: for Effect on CsgA aggregation (in words) / Inhibition of Aggregation CsgA (compound activity range): compounds at 20 μM; for inhibition at 20 µM / Inhibition of Aggregation CsgA (compound activity range): CsgA at 20 μM, ThT fluorescence at 18 hours; for Inhibition of Aggregation CsgA (compound activity range): 20 µM
T1 construct: made in house; host or cells: E. coli NEB 3016 slyD::kan, pET11d
T1 sequence (P28307 23-151): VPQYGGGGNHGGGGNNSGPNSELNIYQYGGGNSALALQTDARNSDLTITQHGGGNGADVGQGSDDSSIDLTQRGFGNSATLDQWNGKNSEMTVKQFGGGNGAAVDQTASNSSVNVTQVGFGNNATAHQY
Protocol: In Vitro ThioflavinT Assay to Determine Effects of Compounds on CsgA Aggregation.
To assess the effects of compounds on aggregation of E. coli CsgA, a cell-free assay was performed using purified CsgA and Thioflavin T. In the assay, histidine-tagged CsgA was over-expressed in E. coli NEB 3016 slyD::kan cells harboring a pET11d vector containing csgA with the sequence for 6 histidine residues added to the C-terminus and without the Sec signal (amino acid 1-22) sequence. To induce over-expression of CsgA, 0.5 mM isopropyl β-D-1-thiogalactopyranoside (“IPTG”) was added to cultures with an optical density at 600 nm (OD600) of 0.8-1, and induced cells were cultured at 37° C. for 1 hour prior to harvest via centrifugation. Cells were lysed under denaturing conditions with 8 M guanidine hydrochloride in 50 mM potassium phosphate buffer pH 7.3, and CsgA was purified via immobilized-metal affinity chromatography by batch purification with Nickel-NTA agarose and a combination of low pressure and gravity flow through a disposable polypropylene column, including washes under low pressure applied manually via application of a syringe plunger to the column with 50 mM potassium phosphate buffer pH 7.3 followed by 12.5 mM imidazole in 50 mM potassium phosphate buffer pH 7.3, and elution by gravity flow with 125 mM imidazole in 50 mM potassium phosphate buffer pH 7.3. Buffers with imidazole were freshly prepared prior to the protein purification. Purified CsgA was passed through a 30 kDa molecular weight cut-off filter and passed through a desalting column. All steps of the CsgA purification in the absence of guanidine hydrochloride were conducted in rapid succession with as little delay as possible. The assay was conducted in 96-well black microplates with 40 μM ThioflavinT, 1% DMSO, CsgA at 20 μM, and compounds at 20 μM. Plates were incubated at 25° C. in a Tecan Nano F200 plate reader with excitation at 438 nm using a 439 nm filter with a bandwidth of 8 nm, and emission at 495 nm with a 490 nm filter with a bandwidth of 10 nm. During the assay, plates were shaken initially for 5 seconds and subsequently for 3 seconds prior to fluorescent readings. Readings were performed every 20 minutes for up to 24 hours. The effect of compounds on CsgA aggregation in the assay was determined with data from 18 hours, following the plateau of the fluorescent signal in the untreated (no compound) control wells containing CsgA. Fluorescence values for each compound with CsgA were first adjusted by subtracting the average fluorescence of the compound in the absence of CsgA. These adjusted values were normalized by dividing them by the average fluorescence in the no-compound (i.e., untreated) control wells containing CsgA […], and the average normalized fluorescence with the compound was expressed as a percentage of the average fluorescence observed in untreated controls.

[2] = target: T2, α-synuclein seeded by E. coli CsgA (Homo sapiens, UniProt P37840); assay: In vitro Thioflavin T assay of CsgA-seeded α-synuclein aggregation
T2 construct: made in house; host or cells: E. coli NEB 3016 slyD::kan (CsgA, pET11d); E. coli (α-synuclein)
Protocol: In Vitro Thioflavin T Assay to Determine the Effects of Compounds on CsgA-Seeded α-Synuclein Aggregation.
To induce over-expression of CsgA, 0.5 mM IPTG was added to cultures with an optical density at 600 nm (OD600) of 0.8-1, and induced cells were cultured at 37° C. for 1 hour prior to harvest via centrifugation. […] Buffers with imidazole were freshly prepared prior to the protein purification. Purified CsgA was passed through a 30 kDa molecular weight cut-off filter and through a desalting column. All steps of the CsgA purification in the absence of guanidine hydrochloride were conducted in rapid succession with as little delay as possible. […] The ammonium sulfate pellet was washed with an equal volume of 100 mM ammonium acetate in ethanol, pelleted via centrifugation, washed twice with ethanol, dried overnight, resuspended in 10 mM Tris pH 7.4, and passed through a 50 kDa cut-off column. The assay was conducted in 96-well black microplates with a single glass 2 mm bead per well, 40 μM ThioflavinT, 1% DMSO, 2 μM CsgA, 50 μM α-synuclein, 100 mM sodium chloride, 9.3 mM potassium phosphate pH 7.3, and compounds at 50 μM. […] The effect of compounds on CsgA-seeded α-synuclein aggregation in the assay was determined with data from 40 hours, following the plateau of the fluorescent signal in the untreated (no compound) control wells containing CsgA and α-synuclein. Fluorescence values for each compound with CsgA and α-synuclein were first adjusted by subtracting the average fluorescence of the compound in the absence of CsgA and α-synuclein.

[3] = target: T3, human α-synuclein (Homo sapiens, UniProt P37840); assay: In vitro Thioflavin T assay of α-synuclein aggregation; details: for inhibition at 1 µM: compounds at 1 μM
T3 construct: made in house; host or cells: E. coli
Protocol: In Vitro Thioflavin T Assay to Determine the Effects of Compounds on α-Synuclein Aggregation.
The ammonium sulfate pellet was washed with an equal volume of 100 mM ammonium acetate in ethanol, pelleted via centrifugation, washed twice with ethanol, dried overnight, resuspended in 10 mM Tris pH 7.4, and passed through a 50 kDa cut-off column. The assay was conducted in 96-well black microplates with a single 2 mm bead in each well, 40 μM ThioflavinT, 1% DMSO, 50 μM α-synuclein, 100 mM sodium chloride, 9.3 mM potassium phosphate pH 7.3, 4.6 mM Tris pH 7.4 (added as the solvent for α-synuclein or independently for controls lacking α-synuclein), and compounds at 1 μM or 50 μM. […] Readings were performed hourly for up to 73 hours. The effect of compounds on α-synuclein aggregation in the assay was determined with data from 40 hours, following the plateau of the fluorescent signal in the untreated (no compound) control wells containing α-synuclein. Fluorescence values for each compound with α-synuclein were first adjusted by subtracting the average fluorescence of the compound in the absence of α-synuclein.

[4] = read-out: Inhibition of Aggregation CsgA (compound activity range), compounds at 20 μM
[5] = read-out: Inhibition of Aggregation CsgA, compounds at 20 μM
[6] = compounds at 50 μM, 2 μM CsgA, 50 μM α-synuclein, ThT fluorescence at 40 hours, read-out: Inhibition of Aggregation CsgA-seeded αSyn
[7] = compounds at 50 μM, 2 μM CsgA, 50 μM α-synuclein, ThT fluorescence at 40 hours, read-out: Inhibition of Aggregation CsgA-seeded αSyn (compound activity range)
[8] = read-out: Inhibition of Aggregation αSyn
[9] = read-out: Inhibition of Aggregation αSyn (compound activity range)
[10] = read-out: Inhibition of Aggregation CsgA-seeded αSyn
[11] = read-out: Inhibition of Aggregation CsgA-seeded αSyn (compound activity range)
[12] = compounds at 50 μM, 50 μM α-synuclein, ThT fluorescence at 40 hours, read-out: Inhibition of Aggregation αSyn
[13] = compounds at 50 μM, 50 μM α-synuclein, ThT fluorescence at 40 hours, read-out: Inhibition of Aggregation αSyn (compound activity range)
[14] = 50 μM α-synuclein, ThT fluorescence at 40 hours, read-out: Inhibition of Aggregation αSyn
[15] = 50 μM α-synuclein, ThT fluorescence at 40 hours, read-out: Inhibition of Aggregation αSyn (compound activity range)

C=CCc1ccc(OC)c(OC)c1 [4-allyl-1,2-dimethoxy-benzene, 4-allyl-1,2-dimethoxybenzene]
Effect on CsgA aggregation (in words) [1]: without notable inhibition
inhibition at 20 µM [1, 4]: < -10%
inhibition at 20 µM [1, 5]: -18%
Effect on CsgA-seeded α-synuclein aggregation (in words) ([2]; compounds at 50 μM): demonstrated inhibition
inhibition at 50 µM [2, 6]: 36%
inhibition at 50 µM [2, 7]: 30 to 60%
Effect on α-synuclein aggregation (in words) ([3]; compounds at 50 μM): without notable inhibition
inhibition at 50 µM [3, 8]: 5%
inhibition at 50 µM [3, 9]: -10 to 10%

CCc1ccc(O)c(OC)c1 [4-ethyl guaiacol, 4-ethyl-2-methoxyphenol]
Effect on CsgA aggregation (in words) [1]: relatively strong enhancement of CsgA aggregation
inhibition at 20 µM [1, 5]: -82%
inhibition at 50 µM [2, 10]: -10%
inhibition at 50 µM [2, 11]: 30 to 60%
inhibition at 50 µM [3, 12]: -2%
inhibition at 50 µM [3, 13]: -10 to 10%

Brc1cccc(-c2cc(-c3ccc4c(c3)OCO4)n[nH]2)c1 [Anle 138b, reference compound]
Effect on CsgA aggregation (in words) [1]: relatively little to no effect
inhibition at 20 µM [1, 4]: -10 to 10%
inhibition at 20 µM [1, 5]: 9%

CC(Cc1ccc(O)c(O)c1)C(C)Cc1ccc(O)c(O)c1 (centres unmarked) [NDGA, 4,4′-(2,3-dimethylbutane-1,4-diyl)dibenzene-1,2-diol]
inhibition at 20 µM [1, 4]: 10 to 30%
inhibition at 20 µM [1, 5]: 23%
inhibition at 50 µM [2, 6]: 39%
inhibition at 50 µM [3, 12]: 54%
inhibition at 50 µM [3, 13]: 30 to 60%

O=c1cc(-c2ccc(O)cc2)oc2cc(O)cc(O)c12 [apigenin, 5,7-dihydroxy-2-(4-hydroxyphenyl)-4H-1-benzopyran-4-one]
inhibition at 1 µM [3, 14]: 56%
inhibition at 1 µM [3, 15]: 30 to 60%

Cc1ccc(C(C)C)cc1O [carvacrol, 2-methyl-5-(propan-2-yl)phenol]
Inhibition of Aggregation CsgA (compound activity range) [1]: − ((−) is between −10% to 10% inhibition)
inhibition at 20 µM [1, 5]: -20%
inhibition at 50 µM [2, 10]: -2%
inhibition at 50 µM [3, 8]: 2%
inhibition at 50 µM [3, 9]: -10 to 10%

COc1cc(/C=C/C(=O)/C=C(O)/C=C/c2ccc(O)c(OC)c2)ccc1O [curcumin, (1E,6E)-1,7-Bis(4-hydroxy-3-methoxyphenyl)hepta-1,6-diene-3,5-dione]
inhibition at 50 µM [2, 6]: 86%
inhibition at 50 µM [3, 8]: 89%
inhibition at 50 µM [3, 9]: > 60%

C=CCc1ccc(O)c(OC)c1 [eugenol, 2-methoxy-4-(prop-2-en-1-yl)phenol]
Effect on CsgA aggregation (in words) [1]: without notable inhibition
inhibition at 20 µM [1, 5]: -10%
Effect on CsgA-seeded α-synuclein aggregation (in words) ([2]; compounds at 50 μM): demonstrated inhibition
inhibition at 50 µM [2, 10]: 42%
inhibition at 50 µM [2, 11]: 30 to 60%
Effect on α-synuclein aggregation (in words) ([3]; compounds at 50 μM): without notable inhibition
inhibition at 50 µM [3, 8]: -1%
inhibition at 50 µM [3, 9]: -10 to 10%

O=C(O)c1cc(O)c(O)c(O)c1 [gallic acid, 3,4,5-trihydroxybenzoic acid]
Inhibition of Aggregation CsgA (compound activity range) [1]: (++) to (+++)
inhibition at 20 µM [1, 4]: > 60%
inhibition at 20 µM [1, 5]: 82%
inhibition at 50 µM [2, 6]: 63%
inhibition at 50 µM [3, 12]: 99%
inhibition at 50 µM [3, 13]: > 60%

O=c1c(-c2ccc(O)cc2)coc2cc(O)cc(O)c12 [genistein, 5,7-dihydroxy-3-(4-hydroxyphenyl)chromen-4-one]
inhibition at 1 µM [3, 14]: 40%
inhibition at 1 µM [3, 15]: 30 to 60%

COc1ccccc1O [guaiacol, 2-methoxyphenol]
Effect on CsgA aggregation (in words) [1]: without notable inhibition
inhibition at 20 µM [1, 4]: -10 to 10%
inhibition at 20 µM [1, 5]: -5%
Effect on CsgA-seeded α-synuclein aggregation (in words) ([2]; compounds at 50 μM): demonstrated inhibition
inhibition at 50 µM [2, 6]: 40%
inhibition at 50 µM [2, 7]: 30 to 60%
Effect on α-synuclein aggregation (in words) ([3]; compounds at 50 μM): without notable inhibition
inhibition at 50 µM [3, 12]: -2%
inhibition at 50 µM [3, 13]: -10 to 10%

C/C=C/c1ccc(O)c(OC)c1 [isoeugenol, 2-methoxy-4-(prop-1-en-1-yl)phenol]
Effect on CsgA aggregation (in words) [1]: without notable inhibition
inhibition at 20 µM [1, 4]: -10 to 10%
inhibition at 20 µM [1, 5]: -4%
Effect on CsgA-seeded α-synuclein aggregation (in words) ([2]; compounds at 50 μM): demonstrated inhibition
inhibition at 50 µM [2, 6]: 35%
inhibition at 50 µM [2, 7]: 30 to 60%
Effect on α-synuclein aggregation (in words) ([3]; compounds at 50 μM): without notable inhibition
inhibition at 50 µM [3, 12]: 9%
inhibition at 50 µM [3, 13]: -10 to 10%

O=c1c(O)c(-c2ccc(O)c(O)c2)oc2cc(O)cc(O)c12 [quercetin, 2-(3,4-dihydroxyphenyl)-3,5,7-trihydroxychromen-4-one]
inhibition at 20 µM [1, 4]: 30 to 60%
inhibition at 20 µM [1, 5]: 33%
inhibition at 1 µM [3, 14]: 99%
inhibition at 1 µM [3, 15]: > 60%

Oc1ccc(/C=C/c2cc(O)cc(O)c2)cc1 [resveratrol, (E)-5-(4-hydroxystyryl)benzene-1,3-diol]
Inhibition of Aggregation CsgA (compound activity range) [1]: (+++) to (++)
inhibition at 20 µM [1, 4]: > 60%
inhibition at 20 µM [1, 5]: 62%
inhibition at 1 µM [3, 14]: 86%
inhibition at 1 µM [3, 15]: > 60%

O=C(/C=C/c1ccc(O)c(O)c1)O[C@H](Cc1ccc(O)c(O)c1)C(=O)O [rosmarinic acid]
inhibition at 20 µM [1, 4]: 30 to 60%
inhibition at 20 µM [1, 5]: 48%
inhibition at 1 µM [3, 14]: 99%
inhibition at 1 µM [3, 15]: > 60%
